Assay results as given in US9493466B2, “Treatment of cancer with TOR kinase inhibitors” (Signal Pharmaceuticals, LLC, priority 2011, dated 2016).
Where two headings read alike, the source gives them in different places.

How the values were obtained:
U87MG tumors = assay: CD31 immunohistochemistry in U87MG tumors; type: in vivo, mice; conditions: 5 mg/kg BID oral for 4 days; p<0.001
Description: Mechanism of action studies. To determine the mechanism of action of Compound 1, mice bearing U87MG tumors of approximately 500 mm^3 were dosed orally with vehicle or Compound 1 at 5 mg/kg BID for 4 days. The positive control, rapamycin, was dosed at 4 mg/kg Q3D for 4 days. Two hours after the 7th dose of Compound 1 on day 4, animals were euthanized and tumors were dissected out and snap frozen in liquid nitrogen. In the rapamycin-treated group tumors were collected at 2 hour after the 2nd dose on day 4. The tumors were processed for immunohistochemistry (IHC) or TUNEL.
Immunohistochemistry. Five to ten micron (5-10 μm) thick cryostat sections were used for IHC. The expression of the cell proliferation marker Ki67 was evaluated by IHC using anti-Ki67 antibody. […] The sections were visualized with a Nikon E800 microscope equipped with fluorescence detection equipment and a digital camera attached to a computer.
Quantitation of Immunohistochemistry. The tissues sections processed for apoptosis or immunostained for proliferating cells (Ki67) or blood vessels were quantitated using Metamorph software. Using 20× objective, 5 different fields from each section, 2-4 sections from each tumor, and 3-4 tumors from each treatment group or control were used for quantitation. The area of interest was expressed as the percent threshold area of the total area. […]

HCC = assay: Phase 1/2 study Part B: tumor response, HCC; type: in vivo, human; conditions: 14 evaluable patients
Text: (§1) In Part B, subjects may start Compound 1 at the MTD and/or a lower dose level based on safety, PK and PD data from Part A. Approximately 150 subjects will be treated and evaluated for safety and preliminary antitumor activity after every two cycles of therapy. Tumor types include non-small cell lung cancer (NSCLC), glioblastoma multiforme (GBM), hepatocellular carcinoma (HCC), gastrointestinal neuroendocrine tumor of non-pancreatic origin (NET), diffuse large B-cell lymphoma (DLBCL), multiple myeloma (MM), and hormone receptor positive breast cancer (HRPBC). Up to 20 subjects will be enrolled in each tumor type.
Subjects will be evaluated for efficacy every 2 cycles through cycle 6 and every 3 cycles thereafter. The primary efficacy variable is response. Tumor assessments, including imaging (CT, MRI and/or PET) of the chest and abdomen and other sites as appropriate, will be performed during Screening. Subjects with brain lesions will also have brain scans at Screening and during follow-up tumor assessments. After Screening, tumor assessments (for all tumors except multiple myeloma) will be performed on completion of Cycles 2, 4 and 6 (i.e., on Cycles 3, 5 and 7/Day 1±7 days) and then every 3 months thereafter (e.g., Cycle 10 and 13/Day 1±7 days). Tumor assessment (for multiple myeloma and only NHL/DLBCL with known or suspected marrow involvement) (bone marrow aspiration and biopsy, with PD biomarker analysis, cytogenetic analysis if abnormally present at Screening) will be performed on completion of Cycles 4, 8, 12 and 16 only (i.e., on Cycles 5, 9, 13 and 17/Day 1±7 days). Cytogenetics need not be repeated if normal at Screening. […] Subjects will be evaluated for tumor response on completion of Cycle 2, 4, 6, and so on. […]
(§2) For Part B, efficacy variables to be analyzed include tumor response at the end of treatment, the proportion of subject alive and progression-free, and duration of response. […]

GBM = assay: Phase 1/2 study Part B: tumor response, GBM; type: in vivo, human; conditions: 10 evaluable GBM patients
Text: as §1
Subjects will be evaluated for efficacy every 2 cycles through cycle 6 and every 3 cycles thereafter. The primary efficacy variable is response. Tumor assessments, including imaging (CT, MRI and/or PET) of the chest and abdomen and other sites as appropriate, will be performed during Screening. Subjects with brain lesions will also have brain scans at Screening and during follow-up tumor assessments. […] Subjects will be evaluated for tumor response on completion of Cycle 2, 4, 6, and so on. […]
as §2

Anbl 6 = assay: Cell proliferation and viability assay for MM lines; type: cell-based; conditions: Homo sapiens, 120 h, Anbl 6, 5 days, 7AAD FACS
Description: Cell Proliferation and Viability Assay for MM Lines. Prior to use, cells were washed and maintained in medium for 5 days. Cells were seeded out at a density of 0.3×10^6 cells/mL in a 12-well plate and treated with Compound 1 or Compound 2 for 5 days. 7AAD detection fluorescence-activated cell sorting (FACS) flow cytometry was used in the analysis.

SMILES | reduction of CD31-positive blood vessels compared with vehicle (U87MG tumors) [%] | best target lesions responses (reduction) (HCC) | patients meeting Partial Response (RECIST 1.1) (HCC) [patients] | patients meeting at least Stable Disease (RECIST 1.1) (HCC) [patients] | clinical activity, defined as 6-month Progression-Free Survival (GBM) | IC50 (Anbl 6; read-out: IC50, Proliferation) [µM] | IC50 (Anbl 6; read-out: IC50, Viability) [µM]
CO[C@H]1CC[C@H](N2C(=O)CNc3ncc(-c4ccc(C(C)(C)O)nc4)nc32)CC1 [Compound 1, 7-(6-(2-hydroxypropan-2-yl)pyridin-3-yl)-1-((1r,4r)-4-methoxycyclohexyl)-3,4-dihydropyrazino-[2,3-b]pyrazin-2(1H)-one] | 50 | up to 47% | 2 | 5 | No signs of clinical activity | – | –
CCN1C(=O)CNc2ncc(-c3ccc(-c4nc[nH]n4)nc3C)nc21 [Compound 2, 1-ethyl-7-(2-methyl-6-(1H-1,2,4-triazol-3-yl)pyridin-3-yl)-3,4-dihydropyrazino[2,3-b]pyrazin-2(1H)-one] | – | – | – | – | – | 0.37 | 0.78
